Data on three compounds can be found in patent US6770649B2, “1-[1-(hetero)aryl-1-perhydroxyalkylmethyl]-piperazine compounds, process for their preparation and pharmaceutical compositions containing them” (Solvay Pharmaceuticals GmbH, priority 2001, dated 2004).

The target in experiment [1] is T1, human NK-2 receptor (Homo sapiens, UniProt P21452).
T1 construct: expressed in transfected cells; host or cells: CHO cells (membrane preparation)
T1 sequence (P21452 1-398): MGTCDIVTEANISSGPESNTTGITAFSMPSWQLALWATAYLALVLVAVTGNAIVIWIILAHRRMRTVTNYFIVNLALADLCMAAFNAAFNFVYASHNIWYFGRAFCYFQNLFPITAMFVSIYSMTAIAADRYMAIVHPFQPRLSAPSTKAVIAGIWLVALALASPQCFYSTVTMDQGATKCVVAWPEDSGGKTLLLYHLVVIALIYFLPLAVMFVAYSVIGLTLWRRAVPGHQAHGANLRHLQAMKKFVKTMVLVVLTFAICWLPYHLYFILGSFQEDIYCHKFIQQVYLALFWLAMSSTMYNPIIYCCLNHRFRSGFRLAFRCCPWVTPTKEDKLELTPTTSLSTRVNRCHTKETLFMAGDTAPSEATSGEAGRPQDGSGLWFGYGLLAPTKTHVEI
Briefly: Binding power of the test substances to NK-2 receptors in vitro ([3H]-SR 48968 displacement, CHO cell membranes). The settings on record: displacement of [3H]-SR 48968, 90 min incubation, average of at least three measurements, 10^-6 to 10^-10 mol/l, read-out: pKi, affinity to human NK-2 receptors (converted). On the procedure:
1. Determination of the Binding Power of the Test Substances to NK-2 Receptors in vitro
The affinity of the test substances to human NK-2 receptors was measured in vitro. The ability of the test substances to displace the selective NK-2 receptor antagonist SR 48968 (=saredutant) used as reference ligand from its corresponding bond was determined.
The receptor binding studies were carried out with radioactively marked [^3H]-SR 48968 (from Amersham) as ligand. For the binding test, different samples of a membrane preparation of CHO cells (=[…]), which express the human NK-2 receptor (for preparation, see N. P. Gerard et al., Journal of Biological Chemistry 265/33 (1990) 20455-20462), were incubated for 90 minutes (=min.) with a solution of the marked ligand, with the incubation mixtures containing no test substance or additions of different concentrations of test substance. Then in each case the membrane-bound ligands in the samples were separated from free ligands by filtration. The fraction remaining in the filter was washed several times with buffer solution, before its radioactivity was measured using a liquid scintillation counter. That concentration which effects half-maximum displacement of the bound reference ligand was determined as IC50 of the respective test substance. The inhibition constant (Ki value) of the test substance was calculated from the respective IC50 value, and was stated as the negative logarithmised value thereof (pKi).
For the compounds of Examples 1 to 39, the affinity to human NK-2 receptors was determined in each case by at least three measurements of the test substances in concentration series of 10^−6 to 10^−10 mol/l. If several measurements were performed, the average thereof was listed each time.

The target in experiment [2] is T2, NK-2 receptors (Cavia porcellus, UniProt Q64077).
T2 construct: the NK-2 receptors present in the gall-bladder preparations; from tissue; host or cells: Pirbright-White guinea pig: isolated gall-bladder (A2); anaesthetised whole animal (A3)
T2 sequence (Q64077 1-402): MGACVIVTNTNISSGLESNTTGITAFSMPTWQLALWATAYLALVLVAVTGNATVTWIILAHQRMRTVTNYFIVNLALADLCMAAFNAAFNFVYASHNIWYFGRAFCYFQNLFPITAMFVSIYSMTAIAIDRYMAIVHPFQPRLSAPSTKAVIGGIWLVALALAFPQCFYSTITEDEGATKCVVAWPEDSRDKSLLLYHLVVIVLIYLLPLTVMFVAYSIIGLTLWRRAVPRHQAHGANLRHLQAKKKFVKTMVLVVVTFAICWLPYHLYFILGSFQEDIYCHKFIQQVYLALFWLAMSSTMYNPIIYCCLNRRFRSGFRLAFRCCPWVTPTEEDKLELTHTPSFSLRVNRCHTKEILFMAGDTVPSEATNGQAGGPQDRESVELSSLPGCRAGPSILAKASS
Briefly: NK-2-receptor-antagonistic effectiveness in vivo in anaesthetised guinea pigs (NKA test stimulus). The arrangement: species or system guinea pig. The following applies: for NK-2-receptor-antagonistic activity of colon motility, late drop in blood pressure and respiratory resistance (in words): cumulative administration i.v., antagonism detected 1 min. after administration had ended. The source says:
3. Determination of the NK-2-receptor-antagonistic Effectiveness of the Test Substances in vivo
The NK-2- and NK-1-antagonistic activities of the test substances were investigated in anaesthetised guinea pigs in each case after intravenous (=i.v.) and oral (=p.o.) administration in vivio. With the present test model it is possible to detect both NK-2-antagonistic effects in three different organ systems (respiratory tracts, colon and circulation) and NK-1-antagonistic effects (rapid drop in blood pressure) in an animal simultaneously.
Pirbright-White guinea pigs of a body weight of 500-700 g were anaesthetised with ketamine/xylazine (67/13 mg/kg subcutaneously, initial dose, further doses administered as required). The animals were provided with an intravenous catheter in order to administer the substance and an intra-arterial catheter to measure the blood pressure. The animals were artificially ventilated via a tracheal cannula and the respiratory pressure was recorded by means of a pressure transducer. A balloon was introduced into the distal colon of the animals for manometric recording of colon motility by means of a pressure transducer. Blood pressure, heart rate, respiratory pressure and colonic pressure were measured continuously for each animal and plotted on a recorder and by means of a digital data-processing system. Neurokinin A (=NKA; 200 pmol/animal) was administered i.v. as a bolus as a test stimulus to stimulate the NK-1- and the NK-2 receptors. An addition of NKA of this type results in a great increase in respiratory pressure (bronchoconstriction) and colonic pressure, and in a biphasic drop in blood pressure. The first phase of hypotension (=phase of maximum hypotension within the first minute after administration of NKA) is mediated via NK-1 receptors, since they can be blocked completely by specific NK-1 receptor antagonists. The second phase of delayed hypotension (=phase of maximum hypotension after 2-5 min.) on the other hand is mediated via NK-2 receptors, since they can be blocked by specific NK-2 receptor antagonists. The doses of the test substances are given as ED50 values which each result in a response to the NKA test stimulus which is reduced to 50% of the initial value, as characteristic variables for the individual measurement parameters bronchoconstriction, colonic pressure and change in blood pressure mediated by NK-1 or NK-2.
The antagonistic effects of the test substances were first investigated in cumulative form, the time of the NKA test stimulus being 1 min. after the administration of the respective doses of the test substances had ended. These ED50 values obtained from cumulative dose effect curves are plotted in Table 2 below. In order additionally to detect the variation over time of the antagonistic effects of the test substances, the action of the NKA test stimulus was determined at different times (1, 30, 60, 90, 120, 150 and 180 min.) after administration of the test substances.

Where [3] appears, read: guinea pig, iv, cumulative dosing, NKA stimulus 1 min. after administration, NK-2-mediated late drop in blood pressure, read-out: ED50 Blood pressure, i.v. after 1 min. (cumulative).
The mark [4] stands for this setting: guinea pig, iv, cumulative dosing, NKA stimulus 1 min. after administration, respiratory resistance (bronchoconstriction), read-out: ED50 Respiratory resistance, i.v. after 1 min. (cumulative).
Where [5] appears, read: guinea pig, iv, cumulative dosing, NKA stimulus (200 pmol/animal i.v.) 1 min. after administration, colonic pressure, read-out: ED50 Colonic pressure, i.v. after 1 min. (cumulative).
Setting [6] is: guinea pig, iv, from AUC of antagonistic effect over 120 min after administration, colonic pressure, read-out: ED50 Colonic pressure, i.v. AUC over 120 min.
[7] abbreviates: guinea pig, iv, from AUC over 120 min after administration, NK-2-mediated drop in blood pressure, read-out: ED50 Blood pressure, i.v. AUC over 120 min.
The mark [8] stands for this setting: guinea pig, iv, from AUC over 120 min after administration, respiratory resistance, read-out: ED50 Respiratory resistance, i.v. AUC over 120 min.
[9] abbreviates: guinea pig, po, from AUC over 180 min after administration, NK-2-mediated drop in blood pressure, read-out: ED50 Blood pressure, p.o. AUC over 180 min.
The mark [10] stands for this setting: guinea pig, po, from AUC over 180 min after administration, colonic pressure, read-out: ED50 Colonic pressure, p.o. AUC over 180 min.
Where [11] appears, read: guinea pig, po, from AUC over 180 min after administration, respiratory resistance, read-out: ED50 Respiratory resistance, p.o. AUC over 180 min.

Read-outs that look alike come from different tables or passages of the source. Bounds are passed on as bounds.

Regarding `CN(CC(CCN1CCN(C(c2ccco2)[C@H](O)[C@@H](O)[C@H](O)CO)CC1)c1ccc(Cl)c(Cl)c1)C(=O)c1ccccc1` (mixture of isomers) [Example 13], the Ki in experiment [1] is ≤ 10 nM. Moreover, the “NK-2-receptor-antagonistic activity of colon motility, late drop in blood pressure and respiratory resistance (in words)” value (shortened to “NK-2-receptor-antagonistic activity”) in experiment [2] was “marked NK-2-receptor-antagonistic activity”. Besides, the ED50 in experiment [2] (setting [3]) worked out at 0.08 µmol/kg; in experiment [2] (setting [4]) it was 0.048 µmol/kg; in experiment [2] (setting [5]), 0.019 µmol/kg; in experiment [2] (setting [6]), 0.018 µmol/kg; in experiment [2] (setting [7]), 0.025 µmol/kg; in experiment [2] (setting [8]), 0.023 µmol/kg. Besides, the ED50 in experiment [2] (setting [9]) came out at 24 µmol/kg; in experiment [2] (setting [10]), 1.9 µmol/kg; in experiment [2] (setting [11]), 2 µmol/kg.
In the case of `CN(C[C@@H](CCN1CCN(C(c2ccsc2)[C@H](O)[C@@H](O)[C@H](O)CO)CC1)c1ccc(Cl)c(Cl)c1)C(=O)c1ccccc1` (stereo partly drawn) [Example 1, N-((2S)-2-(3,4-dichlorophenyl)-4-{4-[(2S,3R,4R)-2,3,4,5-tetrahydroxy-1-(3-thienyl)pentyl]-1-piperazinyl}butyl)-N-methylbenzamide], the Ki in experiment [1] was ≤ 1 nM. The “inhibition of the NK-2 mechanisms at the colon compared with bronchoconstrictive or hypotensive NK-2 effects (in words)” value in experiment [2] (comparison of the Table 2 values) is reported as “more effective inhibition of the NK-2 mechanisms at the colon (colon preference)”. For the same compound, in experiment [2], the “NK-2-receptor-antagonistic activity” value is listed as “marked NK-2-receptor-antagonistic activity”. The ED50 in experiment [2] (setting [3]) worked out at 0.025 µmol/kg; in experiment [2] (setting [4]) it was 0.033 µmol/kg; in experiment [2] (setting [5]), 0.017 µmol/kg; in experiment [2] (setting [6]), 0.0009 µmol/kg; in experiment [2] (setting [7]), 0.006 µmol/kg; in experiment [2] (setting [8]) it was 0.008 µmol/kg. Further, the ED50 in experiment [2] (setting [9]) was found to be 2.7 µmol/kg; in experiment [2] (setting [10]), 0.5 µmol/kg; in experiment [2] (setting [11]) it was 1.8 µmol/kg. Also, in experiment [2] (variation over time of the antagonistic effect, guinea pig), the “onset and duration of action (in words)” value is “slow-onset action of long duration”.
Take `CC(=O)OC[C@@H](OC(C)=O)[C@H](OC(C)=O)[C@@H](OC(C)=O)C(c1ccsc1)N1CCN(CC[C@H](CN(C)C(=O)c2ccccc2)c2ccc(Cl)c(Cl)c2)CC1` (some centres unmarked) [Example 14]: in experiment [1], the Ki was ≤ 10 nM. For the same compound, the “NK-2-receptor-antagonistic activity” value in experiment [2] is “marked NK-2-receptor-antagonistic activity”. Further, the ED50 in experiment [2] (setting [3]) was 0.063 µmol/kg; in experiment [2] (setting [4]), 0.078 µmol/kg; in experiment [2] (setting [5]), 0.042 µmol/kg; in experiment [2] (setting [9]) it was 9.4 µmol/kg; in experiment [2] (setting [10]), 3.2 µmol/kg; in experiment [2] (setting [11]) it was 6.7 µmol/kg.

The term ED50 denotes the dose that gives a 50% effect, or the effect in half of the subjects.
